Laboratory results published in PubChem BioAssay (NCI).
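How tested: cells in 96-well plates exposed to compound for 48 hours at five concentrations. TGI: concentration producing complete growth inhibition.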

Assays:
Test in all cases: DTP human tumour cell line panel, 48 h
A549 NSCLC = system: A549 NSCLC
CAKI-1 renal = system: CAKI-1 renal
HCC-2998 colon = system: HCC-2998 colon
HCT-116 colon = system: HCT-116 colon
HOP-92 NSCLC = system: HOP-92 NSCLC
IGROV1 ovarian = system: IGROV1 ovarian
KM12 colon = system: KM12 colon
NCI-H226 lung = system: NCI-H226 lung
NCI-H460 lung = system: NCI-H460 lung
OVCAR-8 ovarian = system: OVCAR-8 ovarian

Compound	TGI (A549 NSCLC) [µM]	TGI (CAKI-1 renal) [µM]	TGI (HCC-2998 colon) [µM]	TGI (HCT-116 colon) [µM]	TGI (HOP-92 NSCLC) [µM]	TGI (IGROV1 ovarian) [µM]	TGI (KM12 colon) [µM]	TGI (NCI-H226 lung) [µM]	TGI (NCI-H460 lung) [µM]	TGI (OVCAR-8 ovarian) [µM]
NC1CNC(=O)c2c(Cl)sc(Cl)c21 (stereo not drawn)	> 100	> 100	> 100	> 100	> 100	> 100	> 100	> 100	> 100	> 100
CC(C)(C)C1CCC2(CC1)c1[nH]c3ccccc3c1C1(CCC(C(C)(C)C)CC1)c1[nH]c3ccccc3c12 (stereo not drawn)	> 100	> 100	> 100	> 100	> 100	> 100	> 100	> 100	> 100	> 100
CCOn1c(C2(CC3CCN(C(=O)c4ccccc4)CC3)OCCO2)cc2ccccc21	32.4	30.2	–	29.2	23.5	31.7	30.9	20.4	27.1	29.2
CC(=O)OC/C=C(/C=C/CNC1CCCCC1)OC(C)=O	> 100	26.7	40.3	30.5	25.5	34.3	32.9	98.5	52.1	–
O=C(N/N=C/c1ccco1)c1cc(I)cc(I)c1O	> 50	> 50	–	> 50	> 50	> 50	–	39.7	–	> 50
COc1c(Br)cc(CC(N)=O)c(O)c1Br	> 100	> 100	> 100	> 100	> 100	> 100	> 100	> 100	–	> 100
O=C(CSc1n[nH]c(=O)[nH]c1=O)NNC(=O)c1cccc2nc3ccccc3nc12	> 100	> 100	> 100	> 100	> 100	> 100	> 100	> 100	> 100	> 100
O=[N+]([O-])c1ccc(NC(=S)N=Nc2c(O)[nH]c3ccc(Br)cc23)cc1	–	20.6	–	18	22.7	18.3	22	38.1	21.2	20
Nc1ccc(S(=O)(=O)Nc2nc3ccccc3nc2N2CCCCC2)cc1	> 100	> 100	> 100	> 100	> 100	> 100	> 100	> 100	> 100	> 100
CNC(=O)N(CCC#N)[C@H]1CCCC[C@@H]1N(C(=O)NC)c1ccccc1	> 100	> 100	> 100	> 100	> 100	> 100	> 100	> 100	> 100	> 100
COc1c(C)c2nc3ccccc3[nH]c2c2c(=O)ccnc12	> 100	> 100	> 100	> 100	> 100	> 100	> 100	> 100	> 100	> 100
Nc1ccc2[nH]c(-c3cccc(Cl)c3)cc(=O)c2c1	> 100	–	54.4	–	9.69	> 100	> 100	–	> 100	> 100
CCOc1cc(-c2nc3ccccn3c2/N=C/c2cc(Br)ccc2O)ccc1O	> 100	> 100	–	> 100	64.5	49.1	–	> 100	> 100	59.3
N#Cc1cc2c(cc1Cl)Sc1nccn1S2(=O)=O	28.7	3.6	–	4.03	15.3	13.6	20.7	18	32.2	8.9
O=C(Cc1ccc([N+](=O)[O-])cc1)OCC#CCOC(=O)Cc1ccc([N+](=O)[O-])cc1	> 10	–	–	–	> 10	> 10	> 10	–	> 10	> 10
Cn1c2ccccc2n2c(=O)c3cc([N+](=O)[O-])ccc3c(C#N)c12	> 100	–	> 100	> 100	–	> 100	> 100	> 100	> 100	> 100
CCOC(=O)C(CC#Cc1ccc(C#CCC(NC(C)=O)C(=O)OCC)cc1)NC(C)=O (stereo not drawn)	> 100	> 100	> 100	> 100	–	> 100	> 100	> 100	> 100	> 100
O=C1C=C(c2ccccc2)O/C1=C/C(=O)c1ccc(Cl)cc1	–	27.6	32.2	30.6	44.9	35.9	36.7	–	41.5	74.8
CN(C)CCn1c(=O)c2ccc(NCCCN(C)CCCNc3ccc4c(=O)n(CCN(C)C)c(=O)n5c6ccc([N+](=O)[O-])cc6c(=O)c3c45)c3c(=O)c4cc([N+](=O)[O-])ccc4n(c1=O)c23	0.308	1.16	0.0921	0.118	0.198	0.174	0.27	–	0.12	0.431
CCNC(=O)C1CCCN1C(=O)C(CCCN=C(N)N)NC(=O)C(CC(C)C)NC(=O)C(Cc1c[nH]c2ccccc12)NC(=O)C(Cc1ccc(O)cc1)NC(=O)C(CO)NC(=O)C(Cc1c[nH]c2ccccc12)NC(=O)C(Cc1cnc[nH]1)NC(=O)C1CCC(=O)N1 (stereo not drawn)	> 100	> 100	> 100	–	> 100	> 100	> 100	> 100	> 100	> 100
COC(=O)C1=Nc2c(C)nn(-c3ccccc3)c2N=C(c2ccc([N+](=O)[O-])cc2)C1	> 10	> 10	> 10	> 10	> 10	> 10	> 10	–	–	> 10
